Results: ChEMBL document CHEMBL1142119, “Cytotoxic alkylpiperidine alkaloids from the Brazilian marine sponge Pachychalina alcaloidifera” (J Nat Prod, 2007)

Tests used:
Type in all cases: cell-based
[1] = Cytotoxicity against human MDA-MB435 cells by MTT assay; settings: mda-mb-435
SF-295 = test: Cytotoxicity against human SF295 cells by MTT assay
HL-60 = test: Cytotoxicity against human HL60 cells by MTT assay
HCT-8 = test: Cytotoxicity against human HCT8 cells by MTT assay

Row | Structure (SMILES) | Activity [1] [µg/mL] | Activity (SF-295) [µg/mL] | Activity (HL-60) [µg/mL] | Activity (HCT-8) [µg/mL]
1 | OC1\C=C/C=C/C=C/CC[C@H]2CN3CCCCCCCCCCCC[C@H]4C[C@H](CN(C1)C4)[C@@H]2CC3 (stereo partly specified) | 3.1 | 8.7 | 6.9 | > 25
2 | O[C@H]1/C2=C\C/C=C/C=C\C=C/CCN3CC45CCCCCCCCCCCCN(CC1C4CC23)C5 (stereo partly specified) [MADANGAMINE F] | 16.2 | 19.8 | 16.7 | > 25
3 | OC1/C=C\C=C/CCCCCC[C@H]2CN3CC/C=C\CCCCCCC4C[C@@H](CN(C1)C4)[C@H]2CC3 (stereo partly specified) [ARENOSCLERIN D] | 1.2 | 5.9 | 2.1 | 6.2
4 | C1=C\CCCCC[C@H]2CN3CC/C=C\CCCCCC[C@@H]4C[C@@H](CN(CC/C=C\C/1)C4)[C@H]2CC3 [HALICLONACYCLAMINE F] | 1 | 4.5 | 2.2 | 8.6
